According to ChEMBL document CHEMBL1201862, “PubChem BioAssay data set” (2004):
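96-well plates; 48 h exposure; 5 concentrations. Endpoints by linear interpolation between flanking doses. Not reached: highest tested concentration assigned. GI50 = concentration required for 50% inhibition of growth.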 Calls of active or inactive are those of the source. Cut-off read from the data, not from the text of the source: active = GI50 up to about 1.1 µM and inactive = higher.

Columns and labels:
Experiment in all cases: growth of human tumour cells (NCI), 48 h
MOLT-4 = system: MOLT-4
NCI-H226 = system: NCI-H226
SK-OV-3 = system: SK-OV-3
NCI-H460 = system: NCI-H460
SK-MEL-28 = system: SK-MEL-28
SNB-19 = system: SNB-19
SNB-75 = system: SNB-75
T47D = system: T47D
HOP-92 = system: HOP-92
HCC 2998 = system: HCC 2998
SR = system: SR
BT-549 = system: BT-549
LOX IMVI = system: LOX IMVI
Hs-578T = system: Hs-578T
A498 = system: A498
HCT-15 = system: HCT-15
NCI-H522 = system: NCI-H522
HL-60 = system: HL-60
M14 = system: M14
NCI/ADR-RES = system: NCI/ADR-RES

Structure (SMILES) | GI50 (MOLT-4) | GI50 (NCI-H226) | GI50 (SK-OV-3) | GI50 (NCI-H460) | GI50 (SK-MEL-28) | GI50 (SNB-19) | GI50 (SNB-75) | GI50 (T47D) | GI50 (HOP-92) | GI50 (HCC 2998) | GI50 (SR) | GI50 (BT-549) | GI50 (LOX IMVI) | GI50 (Hs-578T) | GI50 (A498) | GI50 (HCT-15) | GI50 (NCI-H522) | GI50 (HL-60) | GI50 (M14) | GI50 (NCI/ADR-RES)
COc1ccc2[nH]c3c(c2c1)COc1ccccc1C3=O | > 100 µM (inactive) | > 100 µM (inactive) | > 100 µM (inactive) | > 100 µM (inactive) | > 100 µM (inactive) | > 100 µM (inactive) | 18.6 µM (inactive) | 44.4 µM (inactive) | > 100 µM (inactive) | > 100 µM (inactive) | > 100 µM (inactive) | 37.1 µM (inactive) | > 100 µM (inactive) | 69 µM (inactive) | > 100 µM (inactive) | > 100 µM | > 100 µM (inactive) | > 100 µM (inactive) | > 100 µM (inactive) | > 100 µM (inactive)
COC(=O)C1CN=CN1CCc1ccccc1 (stereo not given) | > 100 µM (inactive) | > 100 µM (inactive) | > 100 µM (inactive) | > 100 µM (inactive) | > 100 µM (inactive) | > 100 µM (inactive) | 15.5 µM (inactive) | > 100 µM (inactive) | > 100 µM (inactive) | > 100 µM (inactive) | > 100 µM (inactive) | > 100 µM (inactive) | > 100 µM (inactive) | > 100 µM (inactive) | > 100 µM (inactive) | > 100 µM | > 100 µM (inactive) | > 100 µM (inactive) | > 100 µM (inactive) | > 100 µM (inactive)
Cc1cc(S(=O)(=O)NC2=Nc3ccccc3C(c3ccccc3)N2)c(S)cc1Cl (stereo not given) | 81.8 µM (inactive) | 17.4 µM (inactive) | > 100 µM (inactive) | 12.9 µM (inactive) | > 100 µM (inactive) | 34 µM (inactive) | > 100 µM (inactive) | 6.56 µM (inactive) | > 100 µM (inactive) | > 100 µM (inactive) | 23.3 µM (inactive) | > 100 µM (inactive) | 39.3 µM (inactive) | > 100 µM (inactive) | > 100 µM (inactive) | 59.3 µM | > 100 µM (inactive) | > 100 µM (inactive) | > 100 µM (inactive) | > 100 µM (inactive)
O=C(Cc1ccccc1F)NC1=C(Cl)C(=O)c2ccccc2C1=O | 1.06 µM (active) | 1.74 µM (inactive) | 3.04 µM (inactive) | 1.38 µM (inactive) | 0.822 µM (active) | 2.84 µM (inactive) | 0.655 µM (active) | 1.87 µM (inactive) | 0.887 µM (active) | 3.48 µM (inactive) | 0.578 µM (active) | 1.36 µM (inactive) | 1.75 µM (inactive) | 0.656 µM (active) | 4.69 µM (inactive) | 0.54 µM | 0.29 µM (active) | 0.31 µM (active) | 0.802 µM (active) | 1.95 µM (inactive)
COc1ccc(-c2cc(=O)c3ccc(O)cc3o2)cc1OC | 25.6 µM (inactive) | > 100 µM (inactive) | 41.4 µM (inactive) | 25.5 µM (inactive) | 71.9 µM (inactive) | 35.6 µM (inactive) | 10.2 µM (inactive) | 25.9 µM (inactive) | 56.6 µM (inactive) | 46.9 µM (inactive) | 13 µM (inactive) | 46.5 µM (inactive) | 33.5 µM (inactive) | 32.7 µM (inactive) | 34 µM (inactive) | 32.4 µM | 16.6 µM (inactive) | 23.5 µM (inactive) | 72.8 µM (inactive) | 34.9 µM (inactive)
COc1cc2ccc(=O)oc2cc1O [SCOPOLETIN] | 28.8 µM (inactive) | 86.3 µM (inactive) | 94.2 µM (inactive) | 18.4 µM (inactive) | 73.3 µM (inactive) | 44 µM (inactive) | 50.8 µM (inactive) | > 100 µM (inactive) | 206 µM (inactive) | 98.4 µM (inactive) | > 100 µM (inactive) | > 100 µM (inactive) | 61.9 µM (inactive) | > 100 µM (inactive) | 80.4 µM (inactive) | 25.1 µM | 67.8 µM (inactive) | 34.8 µM (inactive) | > 100 µM (inactive) | 56.2 µM (inactive)
